Data: US6413946B1, “Composition for treatment of diabetes and treatment of diabetes” (Meiji Seika Kaisha, Ltd., priority 1997, dated 2002)
Entries after “also recorded” stand apart in the source; their conditions may differ.

Experiments:
[1] = system: STZ diabetic rats; experiment: Biochemical test of urine sample of STZ diabetic rats (Example 1); assay type: in vivo, Wistar rats; settings: oral twice a day for 5 consecutive days, VOSO4 50 mg/kg, FOM-Na 160 mg/kg
Method: (§1) In this Example, as animals to be tested, the STZ diabetic rats were prepared from normal Wistar rats having an average body weight of 250 g (male, 6 weeks of age). For this purpose, the normal Wistar rats were made diabetic by a single administration of a dose of 60 mg/kg of STZ intravenously. The normal Wistar rats (male) which are to be subjected to the STZ administration, when they were given 20 g/day of feed and 36 g/day of water, had have such body conditions that average values each of their urine volume output, serum glucose level, serum urea nitrogen level, serum creatinine level, serum total protein level and serum albumin level of the rats are amounting to 18 ml, 152 mg/dl, 18.0 mg/dl, 0.5 mg/dl, 5.63 g/dl and 4.2 g/dl, respectively.
(§2) The STZ diabetic rats as prepared and used in this Example are such those rats (7 weeks of age, 6 rats per group) which had received an intravenous administration of a single dose of 60 mg/kg of STZ and which were confirmed to have been made diabetic with their showing such symptom that their serum glucose level was not less than 400 (mg/dl), when measured by sampling their blood at 1 week lapse from the STZ administration.
(§3) One week after the intravenous administration of single dose 60 mg/kg of STZ, to the male 7-week-old Wistar rats (6 rats per group), which have been confirmed to have the symptoms of diabetes, were orally administered either one or both of vanadyl sulfate VOSO4 at a single dose of 50 mg/kg and fosfomycin disodium salt (abbreviated as FOM-Na) at a single dose of 160 mg/kg, twice a day for 5 consecutive days, by administration of the test compound(s) in the form of the aqueous solutions. The body weight, amounts (volumes) of feed taken, water taken and urine volume output of the rats under test were measured with lapse of time. Further, sampling of blood from the rats was effected at a time of 24 hours after the final administration of the compound(s) tested. Samplings of the urine from the rats were effected over 12 hours after the final administration of the compound(s) tested, and the blood sample and the urine samples as collected were subjected to the following biochemical tests.
(§4) In the biological tests of the blood sample above-mentioned, there were measured the serum glucose level, serum urea nitrogen level, serum creatinine level, serum total protein level and serum albumin level. In the biochemical tests of the urine sample, there were measured the collected amounts of the glucose, total protein and creatinine present in the urine. […] These rats for the comparative purpose were tested similarly to the above tests.

[2] = system: rats; experiment: Toxicity in rats at oral administration; assay type: in vivo
[3] = system: STZ diabetic rats; experiment: Biochemical tests of serum (blood) sample of STZ diabetic rats (Example 1); assay type: in vivo, Wistar rats; settings: oral twice a day for 5 consecutive days, fosfomycin disodium salt 160 mg/kg, vanadyl sulfate 50 mg/kg, alone or combined
Method: In this Example, as animals to be tested, the STZ diabetic rats were prepared from normal Wistar rats having an average body weight of 250 g (male, 6 weeks of age). For this purpose, the normal Wistar rats were made diabetic by a single administration of a dose of 60 mg/kg of STZ intravenously. […]
as §2
One week after the intravenous administration of single dose 60 mg/kg of STZ, to the male 7-week-old Wistar rats (6 rats per group), which have been confirmed to have the symptoms of diabetes, were orally administered either one or both of vanadyl sulfate VOSO4 at a single dose of 50 mg/kg and fosfomycin disodium salt (abbreviated as FOM-Na) at a single dose of 160 mg/kg, twice a day for 5 consecutive days, by administration of the test compound(s) in the form of the aqueous solutions. The body weight, amounts (volumes) of feed taken, water taken and urine volume output of the rats under test were measured with lapse of time. […]

[4] = system: STZ diabetic rats; experiment: General observation of body conditions of STZ diabetic rats (Example 1); assay type: in vivo, Wistar rats; settings: oral twice a day for 5 consecutive days, VOSO4 50 mg/kg, FOM-Na 160 mg/kg
Method: as §1, §2, §3, §4

[5] = system: STZ diabetic rats; experiment: Biochemical tests of blood of STZ diabetic rats (Example 2); assay type: in vivo, Wistar rats; settings: 320 mg/kg oral twice a day for 5 consecutive days
Method: To male Wistar 7-week-old rats (7 rats per group), which were intravenously administered with a single dose of 60 mg/kg of STZ and which were confirmed to have been made diabetic after the lapse of 1 week from the STZ administration, fosfomycin disodium salt or fosfomycin calcium salt (FOM-Ca) was orally administered at a dose of 320 mg/kg, twice a day for 5 consecutive days. Then, sample of the blood of each test rat was taken and subjected to the biochemical tests.

[6] = system: Na,K-ATPase; settings: cited from earlier work
[7] = system: STZ diabatic rats; settings: aqueous saline solution as drinking water; 6th week after the administration; cited from earlier work

| Molecule | Urine Creatinine ([1]; Day 0) [mg/12 hr] | Urine Glucose ([1]; Day 0) [g/12 hr] | Urine Total protein ([1]; Day 0) [g/12 hr] | Urine Creatinine ([1]; Day 5) [mg/12 hr] | Urine Glucose ([1]; Day 5) [g/12 hr] | Urine Total protein ([1]; Day 5) [g/12 hr] | Body weight ([4]; Day 0) [g] | Feed volume taken ([4]; Day 0) [g] | Urine volume output ([4]; Day 0) [mL] | Water volume taken ([4]; Day 0) [g] | Body weight ([4]; Day 5) [g] | Feed volume taken ([4]; Day 5) [g] | Urine volume output ([4]; Day 5) [mL] | Water volume taken ([4]; Day 5) [g] | Blood Glucose ([5]; Day 0) [mg/dL] | Blood Triglyceride ([5]; Day 0) [mg/d1] | Blood Albumin ([5]; Day 5) [g/dL] | Blood Creatinine ([5]; Day 5) [mg/dL] | Blood Glucose ([5]; Day 5) [mg/dL] | Blood Total protein ([5]; Day 5) [g/dL] | also measured |
| --- | --- | --- | --- | --- | --- | --- | --- | --- | --- | --- | --- | --- | --- | --- | --- | --- | --- | --- | --- | --- | --- |
| O=S(=O)([O-])[O-].[O]=[V+2] [VOSO4, vanadyl sulfate] | 12.5 ± 1.8 | 9.1 ± 1.4 | 7.2 ± 8.2 | 12.1 ± 2.5 | 6.8 ± 3.2 | 3.9 ± 0.8 | 226 ± 8 | 35 ± 2 | 111 ± 10 | 140 ± 12 | 239 ± 9 | 29 ± 4 | 82 ± 21 | 99 ± 24 |  |  |  |  |  |  | Toxicity (in words) ([2]; oral administration of 50 mg/kg): no toxicity; Effect on serum glucose level (in words) [3]: action of lowering an unusually high serum glucose level |
| C[C@@H]1O[C@@H]1P(=O)([O-])[O-].[Ca+2] [FOM-Ca, fosfomycin calcium salt] |  |  |  |  |  |  |  |  |  |  |  |  |  |  | 431 ± 5 | 178 ± 18 | 4.1 ± 0.1 | 0.51 ± 0.01 | 336 ± 23 | 5.37 ± 0.07 | Effect on serum glucose level / symptoms of diabetes (in words) ([5]; listed as calcium salt, calcium salt): evidently ameliorate an unusually high serum glucose level; Effect on serum glucose level / symptoms of diabetes (in words) ([5]; listed as fosfomycin calcium salt, calcium salt): clearly ameliorate; Blood Triglyceride ([5]; Day 5): 59 ± 7 mg/d1; LD50 ([2]; oral administration): ≥ 3500 mg/kg |
| C[C@@H]1O[C@@H](O[C@H]2C[C@@H](O)[C@]3(CO)[C@H]4[C@H](O)C[C@]5(C)[C@@H](C6=CC(=O)OC6)CC[C@]5(O)[C@@H]4CC[C@]3(O)C2)[C@H](O)[C@H](O)[C@H]1O [ouabain] |  |  |  |  |  |  |  |  |  |  |  |  |  |  |  |  |  |  |  |  | Inhibition of Na,K-ATPase (in words) [6]: strong inhibitor |
| C[C@@H]1O[C@@H]1P(=O)([O-])[O-].[Na+].[Na+] [FOM-Na, fosfomycin disodium salt] | 12.5 ± 0.7 | 9.2 ± 0.9 | 4.2 ± 1.1 | 12.5 ± 0.8 | 8.9 ± 1.3 | 5.6 ± 2.2 | 235 ± 4 | 36 ± 1 | 115 ± 5 | 153 ± 5 | 282 ± 3 | 37 ± 1 | 106 ± 7 | 142 ± 16 | 432 ± 6 | 211 ± 30 | 4.0 ± 0.1 | 0.50 ± 0.00 | 345 ± 23 | 5.26 ± 0.06 | Effect on serum glucose level / symptoms of diabetes (in words) ([5]; disodium salt): evidently ameliorate an unusually high serum glucose level; also recorded: clearly ameliorate; Blood Triglyceride ([5]; Day 5): 65 ± 3 mg/d1; Effect on serum glucose level (in words) ([3]; disodium salt): tendency to improve the serum glucose level; also recorded: action of lowering an unusually high serum glucose level |
| sodium metavanadate |  |  |  |  |  |  |  |  |  |  |  |  |  |  |  |  |  |  |  |  | Serum glucose level (in words) [7]: returned to the normal level |
| [Na+].[Na+].[Na+].[O]=[V]([O-])([O-])[O-] [sodium orthovanadate] |  |  |  |  |  |  |  |  |  |  |  |  |  |  |  |  |  |  |  |  | Inhibition of Na,K-ATPase (in words) [6]: strongly inhibit |
